{
  "source": "paper PMC6942214",
  "about": "(Bioorganic & medicinal chemistry letters, 2019)",
  "key": {"normal cells": {"test_system": "normal cells", "conditions": "at therapeutic concentration, preliminary results; cited from earlier work"}, "p53 [1]": {"test_system": "p53", "conditions": "EU-1 ALL cells, dose- and time-dependent; cited from earlier work"}, "EU-1 ALL": {"test_system": "EU-1 ALL", "test": "WST cytotoxicity assay in EU-1 leukemia cells", "format": "cell-based", "conditions": "read-out: IC50 (μM) EU-1 ALL"}, "MDM2 [2]": {"target": "T1, MDM2 (Homo sapiens, UniProt Q00987)", "T1 sequence (Q00987 whole entry)": "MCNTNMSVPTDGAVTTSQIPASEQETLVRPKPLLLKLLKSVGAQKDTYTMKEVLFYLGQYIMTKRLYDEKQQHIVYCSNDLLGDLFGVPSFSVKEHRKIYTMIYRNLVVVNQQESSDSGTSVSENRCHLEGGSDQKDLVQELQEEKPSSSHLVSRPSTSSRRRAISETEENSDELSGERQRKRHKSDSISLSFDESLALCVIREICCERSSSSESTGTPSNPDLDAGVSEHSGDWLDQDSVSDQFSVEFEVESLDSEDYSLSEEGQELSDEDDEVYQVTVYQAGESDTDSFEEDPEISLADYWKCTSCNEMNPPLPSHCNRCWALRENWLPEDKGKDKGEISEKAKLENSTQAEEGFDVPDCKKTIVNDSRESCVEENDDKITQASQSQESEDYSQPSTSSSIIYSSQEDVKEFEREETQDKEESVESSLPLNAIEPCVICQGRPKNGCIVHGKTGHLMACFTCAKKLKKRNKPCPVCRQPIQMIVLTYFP", "conditions": "EU-1 ALL cells; cited from earlier work"}, "p53 [3]": {"test_system": "p53", "test": "Western blot of p53 in EU-1 cells", "format": "cell-based"}, "MDM2 [4]": {"target": "T1, MDM2", "test": "Western blot of MDM2 in EU-1 cells", "format": "cell-based"}, "[5]": {"test_system": "cell lysate of EU-1 leukemia cells", "test": "Prodrug activation in non-denatured EU-1 cell lysate", "format": "in vitro ADME"}, "[6]": {"test": "Water solubility by an HPLC method", "format": "physicochemical", "conditions": "ratio of water solubilities"}},
  "data": [
    {"smiles": "O=C(CCl)Nc1cc(O)c2c(c1)C(=O)c1cccc(O)c1C2=O", "note": "[BW-AQ-101]", "values": [
      {"measurement": "toxicity to normal cells", "setting": "normal cells", "result": "minimal or no toxicity"},
      {"measurement": "effect on p53", "setting": "p53 [1]", "result": "induced activation of p53"},
      {"measurement": "IC50", "setting": "EU-1 ALL", "result": 0.83, "unit": "µM"},
      {"measurement": "effect on MDM2", "setting": "MDM2 [2]", "result": "inhibited MDM2"}
    ]},
    {"smiles": "O=C(CCl)Nc1cc(OCCO)c2c(c1)C(=O)c1cccc(OCCO)c1C2=O", "note": "[BW-AQ-238]", "values": [
      {"measurement": "p53 level (Western blot)", "setting": "p53 [3]; 0.8 μM, 15-h time point", "result": "increased"},
      {"measurement": "p53 level, time course (Western blot)", "setting": "p53 [3]; 1 μM", "result": "elevated after 4 hours of treatment"},
      {"measurement": "cytoplasmic MDM2 level (Western blot)", "setting": "MDM2 [4]; 0.8 μM, 15-h time point", "result": "significantly down-regulated"},
      {"measurement": "MDM2 level, time course (Western blot)", "setting": "MDM2 [4]; 1 μM", "result": "Down-regulation of MDM2 could be detected after 4-h treatment"}
    ]},
    {"smiles": "CC(C)[C@H](N)C(=O)OCCOc1cccc2c1C(=O)c1c(OCCOC(=O)[C@@H](N)C(C)C)cc(NC(=O)CCl)cc1C2=O.Cl", "note": "[Compound 9c]", "values": [
      {"measurement": "time within which the ester bond was cleaved to give parent drug", "setting": "[5]", "result": "≤ 15", "unit": "min"}
    ]},
    {"smiles": "Cl.N[C@@H](Cc1ccccc1)C(=O)OCCOc1cccc2c1C(=O)c1c(OCCOC(=O)[C@@H](N)Cc3ccccc3)cc(NC(=O)CCl)cc1C2=O", "note": "[Compound 9f]", "values": [
      {"measurement": "fold greater solubility than parent drug BW-AQ-238", "setting": "[6]", "result": "over 11000 fold"}
    ]}
  ]
}
